# According to paper PMC10979849 (bioRxiv, 2024):
# Biological target: T1, wild-type (WT) Octβ2R (Drosophila melanogaster, UniProt Q4LBB9)
# T1 sequence (Q4LBB9 1-536): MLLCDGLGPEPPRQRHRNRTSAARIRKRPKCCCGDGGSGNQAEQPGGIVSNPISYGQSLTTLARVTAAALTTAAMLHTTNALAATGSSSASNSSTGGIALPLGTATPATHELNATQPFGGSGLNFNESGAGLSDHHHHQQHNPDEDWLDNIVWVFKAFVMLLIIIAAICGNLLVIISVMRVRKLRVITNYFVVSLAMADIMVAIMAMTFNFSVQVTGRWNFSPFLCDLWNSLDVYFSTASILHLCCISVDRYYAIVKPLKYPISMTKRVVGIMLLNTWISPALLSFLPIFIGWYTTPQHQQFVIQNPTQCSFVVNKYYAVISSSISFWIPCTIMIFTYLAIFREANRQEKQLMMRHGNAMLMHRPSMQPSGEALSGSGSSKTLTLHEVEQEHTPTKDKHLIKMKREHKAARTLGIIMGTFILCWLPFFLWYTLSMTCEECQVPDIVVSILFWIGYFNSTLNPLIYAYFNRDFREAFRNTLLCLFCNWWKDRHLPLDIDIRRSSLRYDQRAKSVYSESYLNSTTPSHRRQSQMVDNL
# Test: Tango β-arrestin assay
# Type: cell-based
# Conditions: agonist; OA 1 nM to 100 μM, ~16 h (Tango)
smiles,measurement,value
NC[C@H](O)c1ccc(O)cc1 [Octopamine],Tango β-arrestin assay (HTLA cells); RFlamp cAMP assay (HEK293T),"negligible β-arrestin-dependent signaling compared to cells expressing WT Octβ2R, even at high concentrations of OA"
